Test results published in patent US20250066359A1, “SOMATOSTATIN RECEPTOR SUBTYPE 5 ANTAGONISTS, AND PHARMACEUTICAL COMPOSITION AND USE THEREOF” (SHANGHAI INSTITUTE OF MATERIA MEDICA, CHINESE ACADEMY OF …, priority 2021, published 2025).

Key:
SSTR5 = assay: Calcium flow response to the SSTR5 agonist (choice of agonist concentration); assay type: cell-based; conditions: CHO-Gα16 cells expressing SSTR5, cell line (h or m) not stated
Description: Testing SSTR5 antagonistic activity in vitro by Calcium flow detection method Experimental principle: After the receptor binds to the ligand and is activated, it can cause the activation of Gα16 protein, which further activates phospholipase C(PLC) to produce IP3 and DAG. IP3 can bind to the IP3 receptors on the endoplasmic reticulum and mitochondria in the cell, thereby causing the release of intracellular calcium. Therefore, measuring the changes in intracellular calcium can be used in the method to detect the activation state of hSSTR5. Fluo-4/AM is a calcium fluorescent probe indicator used to measure calcium ions. As a non-polar lipid-soluble compound, after it enters the cell, the AM group therein dissociates, and Fluo-4 is released under the action of cellular lipase; because Fluo-4 is a polar molecule and is not easy to pass through the lipid bilayer membrane, it can keep Fluo-4 in the cell fora longtime. Finally, the level of Ga protein activation can be reflected by measuring the intensity of the excited fluorescence. Somatostatin, an agonist of SSTR5, can activate SSTR5 receptors and greatly increase the calcium flow response. The SSTR5 antagonist to be tested can inhibit the agonist activity of the SSTR5 receptor and reduce the calcium increased flow response of the receptor stimulated by the agonist. […]

C57BL/6J mice = assay: Gallbladder emptying promotion experiment; assay type: in vivo, mouse; conditions: 30 mg/kg by gavage, egg yolk 1 h later, gallbladder removed after 15 min, versus control group, FIG. 2
Description: Experimental method: Before the experiment, 8-10 weeks old C57BL/6J mice were fasted for 17-18 hours and allowed to drink water freely. The mice were then divided into groups according to weight (n=4), and were gavaged with an aqueous solution of the compound prepared in Example 34 (30 mg/kg) or an equal volume of distilled water (control group), with a dosing volume of 10 mL/kg. At one hour after administration, 200 microliters of egg yolk were orally administered to the mice. After 15 minutes, the mice were killed by dislocation and dissected, and the gallbladder was removed and the bile was squeezed out and weighed with an analytical balance.

mSSTR5 = target: T1, mSSTR5 (Mus musculus, UniProt O08858); assay: SSTR5 antagonistic activity in vitro by calcium flow detection (mSSTR5-CHO-Gα16 cells); assay type: cell-based; conditions: 100 nM Somatostatin-14 agonist, Fluo-4 fluorescence 525 nm
T1 construct: expressed in transfected cells; host or cells: CHO cells co-expressing Gα16 (mSSTR5-CHO-Gα16)
T1 sequence (O08858 1-362): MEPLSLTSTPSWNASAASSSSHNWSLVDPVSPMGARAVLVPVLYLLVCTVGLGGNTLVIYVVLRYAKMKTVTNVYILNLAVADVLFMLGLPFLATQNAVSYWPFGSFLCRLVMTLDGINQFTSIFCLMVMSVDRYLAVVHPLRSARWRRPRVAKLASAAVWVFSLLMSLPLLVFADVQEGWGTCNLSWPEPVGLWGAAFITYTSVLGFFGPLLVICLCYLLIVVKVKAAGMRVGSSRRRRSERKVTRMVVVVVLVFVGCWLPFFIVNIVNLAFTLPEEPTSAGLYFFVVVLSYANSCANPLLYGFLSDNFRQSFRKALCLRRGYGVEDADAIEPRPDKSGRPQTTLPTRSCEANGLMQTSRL
Description: (§1) Testing SSTR5 antagonistic activity in vitro by Calcium flow detection method Experimental principle: After the receptor binds to the ligand and is activated, it can cause the activation of Gα16 protein, which further activates phospholipase C(PLC) to produce IP3 and DAG. IP3 can bind to the IP3 receptors on the endoplasmic reticulum and mitochondria in the cell, thereby causing the release of intracellular calcium. Therefore, measuring the changes in intracellular calcium can be used in the method to detect the activation state of hSSTR5. Fluo-4/AM is a calcium fluorescent probe indicator used to measure calcium ions. As a non-polar lipid-soluble compound, after it enters the cell, the AM group therein dissociates, and Fluo-4 is released under the action of cellular lipase; because Fluo-4 is a polar molecule and is not easy to pass through the lipid bilayer membrane, it can keep Fluo-4 in the cell fora longtime. Finally, the level of Ga protein activation can be reflected by measuring the intensity of the excited fluorescence. Somatostatin, an agonist of SSTR5, can activate SSTR5 receptors and greatly increase the calcium flow response. The SSTR5 antagonist to be tested can inhibit the agonist activity of the SSTR5 receptor and reduce the calcium increased flow response of the receptor stimulated by the agonist.
(§2) • (1) The hSSTR5-CHO-Gα16 and mSSTR5-CHO-Gα16 cell lines stably expressing hSSTR5 or mSSTR5 receptors were seeded at a density of 30,000/well in a 96-well plate and cultured in a 37° C. incubator overnight. • (2) The cells was aspirated off the culture medium, added with freshly prepared dye at 40 μL/well, and incubated in a 37° C. incubator for 45 minutes. • (3) After the dye was aspirated and discarded, the cells were washed with freshly prepared calcium buffer and the culture medium was replaced with 50 μL of calcium buffer. • (4) The SSTR5 agonist Somatostatin-14 was diluted and mixed evenly with calcium buffer. • (5) Detection was performed using a Flextation instrument. Starting from the 15th second, 25 μL of the pre-prepared agonist was automatically added by the instrument, and the fluorescence value at 525 nm was read.

hSSTR5 = target: T2, hSSTR5 (Homo sapiens, UniProt P35346); assay: SSTR5 antagonistic activity in vitro by calcium flow detection (hSSTR5-CHO-Gα16 cells); assay type: cell-based; conditions: for IC50: hSSTR5-CHO-Gα16 cells, 100 nM Somatostatin-14 agonist, Fluo-4 fluorescence 525 nm; for SSTR5 antagonistic activity (in words): summary of Table 1
T2 construct: expressed in transfected cells; host or cells: CHO cells co-expressing Gα16 (hSSTR5-CHO-Gα16)
T2 sequence (P35346 whole entry): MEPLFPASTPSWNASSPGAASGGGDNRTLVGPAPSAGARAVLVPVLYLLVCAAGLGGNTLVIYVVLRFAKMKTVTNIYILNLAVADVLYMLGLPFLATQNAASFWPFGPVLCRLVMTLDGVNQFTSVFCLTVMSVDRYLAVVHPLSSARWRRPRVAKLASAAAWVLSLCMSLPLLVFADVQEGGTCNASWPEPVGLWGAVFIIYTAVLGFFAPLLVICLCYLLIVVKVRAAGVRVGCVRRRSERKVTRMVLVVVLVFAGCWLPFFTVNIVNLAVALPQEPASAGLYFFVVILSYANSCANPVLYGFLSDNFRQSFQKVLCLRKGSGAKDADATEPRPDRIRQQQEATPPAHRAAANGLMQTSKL
Description: as §1, §2

Molecule	IC50 (mSSTR5) [nM]	IC50 (hSSTR5) [nM]	SSTR5 antagonistic activity (in words) (hSSTR5)	EC50 (SSTR5) [nM]	emptying of the mouse gallbladder (bile weight) (C57BL/6J mice)
Somatostatin-14				9.7	
CCOc1cc(CN2CCC3(CC2)CN(c2ccc(C(=O)O)c(F)c2)C3)c(C2CC2)cc1C [Example 34, 4-(7-(2-cyclopropyl-5-ethoxy-4-methylbenzyl)-2,7-diazaspiro[3.5]nonan-2-yl)-2-fluorobenzoic acid]					significantly promote the emptying of the mouse gallbladder
CCOc1cc(CN2CCC3(CC2)CN(c2ccc(C(=O)O)cc2)C3)cc(OCC)c1-c1ccc(F)cc1 [Example 10, 4-(7-((2,6-diethoxy-4′-fluoro-[1,1′-biphenyl]-4-yl)methyl)-2,7-diazaspiro[3.5]nonan-2-yl)benzoic acid]	0.1 to 50	0.1 to 50	potent SSTR5 antagonistic activity		

Further lines, with some results ahead:

IC50 (mSSTR5) [nM]	IC50 (hSSTR5) [nM]	SSTR5 antagonistic activity (in words) (hSSTR5)	Molecule	EC50 (SSTR5) [nM]	emptying of the mouse gallbladder (bile weight) (C57BL/6J mice)
0.1 to 50	50 to 200		CCOc1cc(CN2CCC3(CC2)CC(NS(=O)(=O)c2ccc(OC(F)(F)F)cc2)C3)cc(OCC)c1-c1ccc(F)cc1 [Example 11, N-(7-((2,6-diethoxy-4′-fluoro-[1,1′-biphenyl]-4-yl)methyl)-7-azaspiro[3.5]nonan-2-yl)-4-(trifluoromethoxy)benzenesulfonamide]		
0.1 to 50	0.1 to 50		CCOc1cc(CN2CCC(C3CN(S(=O)(=O)c4ccc(OC(F)(F)F)cc4)C3)CC2)cc(OCC)c1-c1ccc(F)cc1 [Example 14]		
0.1 to 50	0.1 to 50	potent SSTR5 antagonistic activity	CCOc1cc(CN2CCC3(CC2)CN(c2ccc(C(=O)O)cc2F)C3)cc(OCC)c1-c1ccc(F)cc1 [Example 27, 4-(7-((2,6-diethoxy-4′-fluoro-[1,1′-biphenyl]-4-yl)methyl)-2,7-diazaspiro[3.5]nonan-2-yl)-3-fluorobenzoic acid]		
